Results taken from patent EP0956036B1, “ANTI-FIBROTIC AGENT ASSAY” (ETHICON, INC., priority 1996, dated 1998).
Where two headings read alike, the source gives them in different places.

Tests used:
TGF-β1 activation = experiment: Macrophage activation assay (LPS-treated IC-21 macrophages plus fetal fibroblast conditioned media, TGF-β1 ELISA); assay type: cell-based, Mouse; conditions: for inhibition at 50 µM / inhibition at 100 µM: read-out: Inhibition of TGF-β1 Activation, % control (STD)
Experimental: Cultured macrophages were lifted from the dish with 3 ml of PBS. The PBS was balanced with 15 ml of RPMI-1640 containing 10% FBS. The cells were counted and then seeded in 100 mm plates at 1x10^6 cells/dish. When the cultured macrophages reached approximately 70% confluency (2-3 days) they were washed with PBS and RPMI-1640 medium containing 5% FBS and 10 ng/ml LPS was applied (Figure 1). After 24 h of activation with LPS the cells were washed gently with PBS. At this point conditioned medium from confluent fetal dermal fibroblasts was collected and 5 ml was distributed into each dish containing macrophages. The cells were incubated for an additional 24 h, the media were collected, spun down at 600 x g for 10 min and stored at 4° C before TGF-β1 evaluation by ELISA. Each condition was done in duplicate. The cells, washed with PBS, were harvested for total RNA extraction.
Fetal dermal fibroblasts were seeded in 100 mm dishes at 1x10^6 cell/dish. The cells were grown to confluency (2-3 days). The cultures were washed with PBS and fresh medium, either DMEM supplemented with 10% FBS or AIM-V medium (a serum free medium) for serum-free conditions, was applied for 24 h (Figure 1). The medium was collected and combined in order to obtain a homogenous pool of latent TGF-β1. The collection of the medium was done just prior to application in the macrophage assay.
Each measurement was performed in duplicates.

TGF-β1 [1] = experiment: mRNA for TGF-β1 in macrophages, Northern blot; assay type: cell-based, Mouse; conditions: combined treatment of LPS with M6P or DCA
Experimental: (§1) The cells were washed with PBS, followed by addition of the extraction buffer provided with the kit (RNeasy RNA extraction kit). The lysed cells were scraped from the dish and collected in microtubes. Samples were either frozen at -70 °C before analysis or directly assessed following manufacturer protocol. Absorbance at 260 nm and 280 nm was measured and the integrity of RNA was evaluated by denaturing formaldehyde agarose gels stained with ethidium bromide.
Northern blot analysis was carried out as described previously (27). Briefly, total RNA samples (5 µg) were diluted in formaldehyde-MOPS buffer and subjected to electrophoresis in a denaturing 1.2 % Sea Kem GTG agarose gel along with the RNA size markers. RNA was transferred to a nitrocellulose membrane by capillary transfer. The blots were prehybridized for 3 h at 42° C in a solution containing 10% dextran sulfate, 2 x Denhardt's solution, 50% formamide, 5 x SSPE (0.75 M Sodium chloride, 0.05 M sodium phosphate, 0.005 M ethylenediaminetetraacetic acid)/ 0.1% SDS, and 250 µg/ml of sheared salmon testis DNA. Hybridization solution was essentially the same except that ^32P dCTP-labeled DNA probe and 150 µg/ml of salmon testis DNA were included. The hybridization was carried out for 16 h at 42° C. […]

M6P/IGF-II receptor = experiment: Expression of M6P/IGF-II receptor mRNA in neonatal fibroblasts, semiquantitative RT-PCR; assay type: cell-based, human
Experimental: (§2) Human neonatal fibroblasts were seeded in 100 mm dishes at 1 x 10^6 cells/dish. […] In addition, cells were treated with two concentrations of Mannose 1-Phosphate (M1P) (100 and 200 µM) for 24 and 48 h. […] Each treatment was run in duplicates and repetitive analyses were performed.
as §1
The procedure used to transcribe the total RNA was described in detail previously (28). Briefly, the reaction was carried out in a total volume of 25 µl containing 1x reverse transcriptase buffer (50 mM Tris-HCl, pH 8.3, 75 mM KCl, 3 mM MgCl2), 10 mM DTT (Dithiothreitol), 2.5 mM each of dNTPs (Deoxynucleotides), 100 µg/ml of acetylated BSA, 4 units of rRNasin (ribonuclease inhibitor), 200 units of SuperScript ™ RNase H^-Reverse Transcriptase, 0.1 µg of oligo (dT)12-18 and 1 µg of total RNA. Incubation was carried out for 1 h at 42 °C and was terminated by the addition of an equal volume of cold water.
A portion of the first strand cDNA reaction was used in PCR, which was carried out in 25 µl containing 16 mM Tris-HCl, pH 8.3, 50 mM KCl, 1.5 mM MgCl2, 0.01 % gelatin, 200 µM of each dNTPs, 1 µM each sense and antisense oligonucleotides and 2.5 units of AmpliTaq DNA polymerase. Amplification was carried out for 35 cycles. Each cycle consisted of denaturation 1 min at 95°C; annealing at 55°C (optimal for the pair of oligonucleotides used) for 2 min; and elongation at 72°C, 3 min. For the final cycle elongation was 7 min. Reaction products were separated by 2% agarose gel electrophoresis and were visualized by ethidium bromide staining. […] Restriction digests were performed in order to confirm PCR product specificity. Densitometry was used for quantitative analysis of the ethidium bromide stained gels.

TGF-β1 [2] = experiment: Expression of TGF-β1 mRNA in neonatal fibroblasts, semiquantitative RT-PCR; assay type: cell-based, human
Experimental: as §2, §1
(§3) The procedure used to transcribe the total RNA was described in detail previously (28). […]
A portion of the first strand cDNA reaction was used in PCR, which was carried out in 25 µl containing 16 mM Tris-HCl, pH 8.3, 50 mM KCl, 1.5 mM MgCl2, 0.01 % gelatin, 200 µM of each dNTPs, 1 µM each sense and antisense oligonucleotides and 2.5 units of AmpliTaq DNA polymerase. […] Densitometry was used for quantitative analysis of the ethidium bromide stained gels.

TGF-β receptor type I = experiment: Expression of TGF-β receptor type I mRNA in neonatal fibroblasts, semiquantitative RT-PCR; assay type: cell-based, human; conditions: M6P treatment, during the time course (24 and 48 h)
Experimental: as §2, §1, §3
(§4) A portion of the first strand cDNA reaction was used in PCR, which was carried out in 25 µl containing 16 mM Tris-HCl, pH 8.3, 50 mM KCl, 1.5 mM MgCl2, 0.01 % gelatin, 200 µM of each dNTPs, 1 µM each sense and antisense oligonucleotides and 2.5 units of AmpliTaq DNA polymerase. […] Sizes were determined using Q X 174 DNA/Hae III markers. […] Densitometry was used for quantitative analysis of the ethidium bromide stained gels.

M6P/IGF-II receptors = experiment: Levels of M6P/IGF-II receptors within wounds treated with M6P; assay type: in vivo; conditions: 3 days post-wounding
TGase II = experiment: mRNA for TGase II in macrophages, RT-PCR with densitometry; assay type: cell-based; conditions: Mus musculus, Macrophage; macrophages treated with 1 µM hydrocortisone; densitometric analysis of RT-PCR products
Experimental: as §1, §3, §4
In an attempt to identify the mechanism of this inhibition, the level of mRNA was evaluated for TGase II in macrophages treated with 1 µM hydrocortisone.

O=P(O)(O)OC[C@H]1OC(O)[C@@H](O)[C@@H](O)[C@@H]1O (stereo partly drawn) [M6P, D-mannose 6-phosphate] was tested, and the “Inhibition of TGF-β1 Activation, % control (STD)” value (from here on “Inhibition … % control (STD)”) (TGF-β1 activation; 50 µM) was 69.6 (1.7) %, the “Inhibition … % control (STD)” value (TGF-β1 activation; 100 µM) was 32.9 (11.5) % and the “Total TGF-β1 (STD)” value (TGF-β1 activation; LPS + CM serum-free, 100 µM) was 1649.8 (71.7) pg/ml. The “Total TGF-β1 (STD)” value (TGF-β1 activation; LPS+CM with serum, 100 µM) was 2472.6 (374.5) pg/ml, the inhibition at 50 µM (TGF-β1 activation; Mus musculus, 50 µM) was 69.6% and the inhibition at 100 µM (TGF-β1 activation; Mus musculus, 100 µM) was 32.9%. The “levels of mRNA for TGF-β1” value (TGF-β1 [1]) was “remained the same”, the “M6P/IGF II Receptor 24h” value (M6P/IGF-II receptor; M6P 1 µM) was 98.4 (20.6) and the “M6P/IGF II Receptor 48h” value (M6P/IGF-II receptor; M6P 1 µM) was 112.8 (21.4). The “M6P/IGF II Receptor 24h” value (M6P/IGF-II receptor; M6P 10 µM) was 86.1 (3.2), the “M6P/IGF II Receptor 48h” value (M6P/IGF-II receptor; M6P 10 µM) was 108 (7.1) and the “M6P/IGF II Receptor 24h” value (M6P/IGF-II receptor; M6P 50 µM) was 74 (36.6). The “M6P/IGF II Receptor 48h” value (M6P/IGF-II receptor; M6P 50 µM) was 59.3 (1.4), the “M6P/IGF II Receptor 24h” value (M6P/IGF-II receptor; M6P 100 µM) was 85.4 (25) and the “M6P/IGF II Receptor 48h” value (M6P/IGF-II receptor; M6P 100 µM) was 42.2 (3.2). For the same molecule, the “M6P/IGF II Receptor 24h” value (M6P/IGF-II receptor; M6P 200 µM) was 57.5 (5.2), the “M6P/IGF II Receptor 48h” value (M6P/IGF-II receptor; M6P 200 µM) was 39.6 (1.3) and the “TGF-β1 48 h” value (TGF-β1 [2]; M6P 100 µM, 48h) was 57.5 (15.9). The “level of TGF-β receptor type I mRNA” value (TGF-β receptor type I) was “unchanged” and the “levels of the M6P/IGF-II receptors within the wounds” value (M6P/IGF-II receptors) was “downregulated”.

With O=P(O)(O)O[C@H]1O[C@H](CO)[C@@H](O)[C@H](O)[C@@H]1O [M1P, alpha-D(+) mannose 1-phosphate] the inhibition at 100 µM (TGF-β1 activation; Mus musculus) was 85.9%, the “M6P/IGF-II receptor mRNA levels” value (M6P/IGF-II receptor; 100 and 200 µM, 24 and 48 h) was “no effects” and the “TGF-β1 mRNA levels” value (TGF-β1 [2]; 100 and 200 µM, 24 and 48 h) was “no effects”.

For CN(C)c1cccc2c(S(=O)(=O)NCCCCCN)cccc12 [DCA, monodansylcadaverine], the “Inhibition … % control (STD)” value (TGF-β1 activation; 100 µM, listed as Damylcadaverine) was 18.3 (1.6) %, the “Total TGF-β1 (STD)” value (TGF-β1 activation; LPS+CM with serum, 100 µM) was 2302 (219.3) pg/ml and the inhibition at 100 µM (TGF-β1 activation; Mus musculus, 100 µM) was 18.3%. The “levels of mRNA for TGF-β1” value (TGF-β1 [1]) was “remained the same”.

Work on C[C@]12CCC(=O)C=C1CC[C@@H]1[C@@H]2[C@@H](O)C[C@@]2(C)[C@H]1CC[C@]2(O)C(=O)CO [Hydrocortisone, hydrocortisone] yielded an inhibition at 1 µM (TGF-β1 activation; Mus musculus, read-out: Inhibition of TGF-β1, % Control (STD)) of 64% and a TGase II mRNA level, % of control at 1 µM (TGase II) of 37.5%.

In the case of Cl.Cl.NCCCCN [Putrescine, putrescine-dihydrochloride], the “Inhibition … % control (STD)” value (TGF-β1 activation; 50 µM) is reported as 33.4 (28.8) %, the “Inhibition … % control (STD)” value (TGF-β1 activation; 100 µM) is reported as 80.6 (15.5) % and the inhibition at 50 µM (TGF-β1 activation; Mus musculus, 50 µM) is reported as 33.4%. The inhibition at 100 µM (TGF-β1 activation; Mus musculus, 100 µM) was 80.6 ± 15.5%.
